In patent US12157740B2, “Triazolopyridines and triazolopyrimidines that lower stress-induced p-tau” (NantNeuro, LLC, priority 2015, dated 2024):

How the values were obtained:
CRFR2 = target: T1, CRFR2 (Homo sapiens, UniProt Q13324); assay: binding to CRFR2 (Ki)
T1 sequence (Q13324 1-411): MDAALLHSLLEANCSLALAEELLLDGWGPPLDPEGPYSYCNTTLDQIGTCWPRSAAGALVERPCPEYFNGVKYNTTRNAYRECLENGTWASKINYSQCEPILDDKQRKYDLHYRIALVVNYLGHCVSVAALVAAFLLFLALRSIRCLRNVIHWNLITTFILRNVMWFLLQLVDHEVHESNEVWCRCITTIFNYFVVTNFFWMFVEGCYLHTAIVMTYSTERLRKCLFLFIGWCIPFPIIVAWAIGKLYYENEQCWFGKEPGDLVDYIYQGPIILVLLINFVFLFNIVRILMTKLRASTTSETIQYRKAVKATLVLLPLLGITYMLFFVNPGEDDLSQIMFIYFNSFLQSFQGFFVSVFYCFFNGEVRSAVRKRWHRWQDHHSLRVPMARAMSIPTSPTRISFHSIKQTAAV

p-tau = assay: cortisol-induced p-tau increase in vitro (screen of clinical library of CRF-1 inhibitors); assay type: cell-based
Text: To identify therapeutic candidates, a clinical library of CRF-1 inhibitors to was screened to determine their effects on cortisol-induced p-tau increases. […] J03 was shown specifically to inhibit stress-induced p-tau increases by cortisol in vitro.

[1] = test system: tau and phospho-tau in SHSY-5Y cells; assay: CRF-induced tau, p-tau and sAPPα changes in SHSY-5Y cells; assay type: cell-based; details: for p-tau/tau ratio: FIG. 32C
[2] = test system: tau and p-tau in SH-Sy5Y cells; assay: screens for tau and p-tau levels in SH-Sy5Y cells (no CRF stated); assay type: cell-based; details: screen of FIG. 28B
Experimental: As described below, in vitro studies were performed using SHSY-5Y cells. These cells are a useful neurological model that differentiate into cells with morphological and biochemical characteristics of mature neurons including mature isoforms of tau. […]

[3] = in vivo pharmacokinetics, plasma and brain levels; set-up: species or system mouse
J20 mice [4] = assay: J03 pilot study #1 in J20 mice (SQ, 12 days); assay type: in vivo, mouse
Experimental: (§1) Animal experiments were performed using J20 mice. The J20 mouse is a model of for Alzheimer's disease. This model overexpresses human APP with two mutations linked to familial Alzheimer's disease (the APP KM670/671NL (Swedish) and 5APP V717F (Indiana) mutations).
In pilot study #1, J20 mice housed singly were treated by SQ injection of J03 in PEG/b-MCD at 10 mkd for 12 days. NOR analysis of object memory (N=5/group) was performed. The results are illustrated in FIGS. 10D-10I. […] There was no difference in Aβ1-40 (FIG. 10E), but a decrease in Aβ1-42 (FIG. 10F).

J20 mice [5] = assay: J03 pilot study #2 in J20 mice (oral, longer duration); assay type: in vivo, mouse
Experimental: as §1
Based on these promising results, the study was repeated (pilot study #2) with oral delivery and a longer duration.

J20 mice [6] = assay: J17 pilot study in J20 mice (oral, 28 days); assay type: in vivo, mouse; details: oral 28 days
Experimental: as §1
In a J17 pilot study (#1 pilot study) male and female J20 mice were housed singly and treated with J17 at 10 rnkd by oral delivery for 28 days.

tau and p-tau = assay: effect of J03 and J19 on tau and p-tau (FIG. 39E-39F, system not given); details: FIG. 39E
Text: JI9 decreased tau and both J03 and JI9 decreased p-tau (FIG. 39E). Therefore, while the p-tau/tau ratio looks unchanged for J19 FIG. 39F. This is due to the tau decrease and not due to a lack of effect.

[7] = CRF-1 at 100 nM for 3 days, compound at 20 nM, FIG. 29A
[8] = oral delivery, longer duration, J20 mice

In the case of `CCC(COC)n1nnc2c(Nc3ccc(OC)cc3C)nc(C)cc21` (stereo not drawn) [J03, N-(4-Methoxy-2-methylphenyl)-1-[1-(methoxymethyl)propyl]-6-methyl-1H-1,2,3-triazolo[4,5-c]pyridine-4-amine], the Ki (CRFR2) is reported as over 10 µM, the “stress-induced p-tau increases by cortisol” value (p-tau) is reported as “inhibit” and the p-tau [1, 7] is reported as “decreased”. The total tau [1, 7] was “decreased”, the “tau after exposure to CRF” value ([1]; FIG. 21D) was “decreased” and the “p-tau after exposure to CRF” value ([1]; FIG. 21E) was “decreased”. The “tau increases induced by CRF” value ([1]; SHSY-5Y cells cultured without serum, CRF at increasing concentrations, FIG. 10A) was “reduces”, the “phospho-tau (p-tau) increases induced by CRF” value ([1]; SHSY-5Y cells cultured without serum, CRF at increasing concentrations, FIG. 10B) was “reduces” and the “sAPPα increase, significance” value ([1]; at 100 nM CRF, FIG. 32D) was “reached significance”. For the same compound, the p-tau/tau ratio ([1]; at 50 and 100 nM CRF) was “highly significantly decreased”, the tau ([1]; in the absence of CRF and in the presence of 100 nM CRF, FIG. 32A) was “significantly decreased” and the p-tau/tau ratio ([1]; in the absence of CRF) was “decreased”. For the same compound, the p-tau ([1]; in the presence and absence of CRF, FIG. 32B) was “significantly reduced”, the “sAPPα after exposure to CRF” value ([1]; versus control, FIG. 21C) was “lower” and the sAPPα ([1]; with and without CRF, FIG. 32D) was “trend for sAPPα to be higher”. For the same compound, the p-tau [2] was “neither J14 nor J03 decreased”, the total tau [2] was “neither J14 nor J03 decreased” and the brain levels ([3]; 10 mk subcutaneous (SQ) single injection, J20 mice, FIG. 10C) was “low”. The “brain levels at the peak after oral delivery, compared with SQ” value ([3]; oral delivery by feeding (not gavage) at 10 mg/kg) was “slightly higher”, the “NOR analysis of object memory (behavior)” value (J20 mice [4]; J20 mice housed singly, SQ 10 mkd in PEG/b-MCD for 12 days, FIG. 10D) was “slight improvement” and the P-tau (J20 mice [4]; SQ 10 mkd, 12 days) was “significantly lower”. For the same compound, the Aβ1-40 (J20 mice [4]; SQ 10 mkd, 12 days, FIG. 10E) was “no difference”, the Aβ1-42 (J20 mice [4]; SQ 10 mkd, 12 days, FIG. 10F) was “decrease” and the Aβ1-40/1-42 ratio (J20 mice [4]; SQ 10 mkd, 12 days, FIG. 10G) was “significantly increased”. The SAPP (J20 mice [4]; SQ 10 mkd, 12 days, FIG. 10H) was “very slightly increased”, the sAPP/Aβ1-42 ratio (J20 mice [4]; SQ 10 mkd, 12 days, FIG. 10I) was “very slightly increased” and the “ratio (p-tau and tau)” value (J20 mice [4]; SQ 10 mkd, 12 days, great individual variation) was “slightly higher”. The total tau (J20 mice [4]; SQ 10 mkd, 12 days, largely due to one mouse, FIG. 11A) was “decreased”, the “novel location assay / preference” value (J20 mice [5]; [8]) was “performed well” and the novel object assay (J20 mice [5]; [8]) was “performed well”. For the same compound, the sAPPα (J20 mice [5]; oral, FIG. 13A) was “increased slightly”, the sAPPβ (J20 mice [5]; oral, FIG. 13B) was “unchanged” and the sAPPα/sAPPβ ratio (J20 mice [5]; oral, FIG. 13C) was “slightly increased”. For the same compound, the Aβ1-40 (J20 mice [5]; oral, FIG. 14A) was “unchanged”, the Aβ1-42 (J20 mice [5]; oral, FIG. 14B) was “unchanged” and the Aβ1-40/Aβ1-42 ratio (J20 mice [5]; oral, FIG. 14C) was “unchanged”. For the same compound, the p-tau (J20 mice [5]; oral, decrease reached statistical significance, FIG. 16) was “decreased”, the activity (J20 mice [6]; male and female J20 mice housed singly, not significant, FIG. 24A) was “lowered” and the “novel object preference, overall” value (J20 mice [6]; all mice, FIG. 24B) was “increased”. The sAPPα (J20 mice [6]; both genders, FIG. 25A) was “increase”, the “ratio sAPPα/sAPPβ” value (J20 mice [6]; males, FIG. 25C) was “slight increase” and the p-tau (tau and p-tau) was “decreased”.
